{"source": "ChEMBL document CHEMBL5291721", "about": "“A preclinical secondary pharmacology resource illuminates target-adverse drug reaction associations of marketed drugs” (Nat Commun, 2023); also: assay procedure not described here", "key": {"[1]": {"target": "T1, Progesterone receptor (Homo sapiens, UniProt P06401)", "T1 sequence (P06401 whole entry)": "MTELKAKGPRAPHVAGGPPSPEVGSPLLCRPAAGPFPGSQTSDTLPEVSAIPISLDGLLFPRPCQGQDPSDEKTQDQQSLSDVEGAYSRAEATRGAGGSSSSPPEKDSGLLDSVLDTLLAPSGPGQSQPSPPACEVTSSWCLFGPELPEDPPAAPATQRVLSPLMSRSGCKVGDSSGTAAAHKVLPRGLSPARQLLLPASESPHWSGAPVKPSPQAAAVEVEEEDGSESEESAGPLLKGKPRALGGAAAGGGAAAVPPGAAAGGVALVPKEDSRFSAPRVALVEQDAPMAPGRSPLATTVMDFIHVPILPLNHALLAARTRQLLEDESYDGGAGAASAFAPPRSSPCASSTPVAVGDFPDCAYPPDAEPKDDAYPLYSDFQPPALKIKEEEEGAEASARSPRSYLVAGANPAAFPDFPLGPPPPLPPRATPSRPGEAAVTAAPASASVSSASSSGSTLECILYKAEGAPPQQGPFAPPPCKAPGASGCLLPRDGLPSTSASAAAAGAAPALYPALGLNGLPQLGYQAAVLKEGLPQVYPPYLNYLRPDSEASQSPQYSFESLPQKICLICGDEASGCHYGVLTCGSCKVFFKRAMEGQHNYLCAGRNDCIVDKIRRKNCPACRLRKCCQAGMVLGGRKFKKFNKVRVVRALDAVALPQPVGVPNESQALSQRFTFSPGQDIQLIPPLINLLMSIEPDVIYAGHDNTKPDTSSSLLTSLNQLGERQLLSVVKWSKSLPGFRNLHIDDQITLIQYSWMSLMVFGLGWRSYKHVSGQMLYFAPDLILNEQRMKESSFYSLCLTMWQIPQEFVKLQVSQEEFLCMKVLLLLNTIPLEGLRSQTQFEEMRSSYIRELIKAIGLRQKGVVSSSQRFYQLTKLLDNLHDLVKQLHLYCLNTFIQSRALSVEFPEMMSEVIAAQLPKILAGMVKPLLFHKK", "format": "functional"}, "[2]": {"target": "T2, Alpha-1A adrenergic receptor (Homo sapiens, UniProt P35348)", "T2 sequence (P35348 whole entry)": "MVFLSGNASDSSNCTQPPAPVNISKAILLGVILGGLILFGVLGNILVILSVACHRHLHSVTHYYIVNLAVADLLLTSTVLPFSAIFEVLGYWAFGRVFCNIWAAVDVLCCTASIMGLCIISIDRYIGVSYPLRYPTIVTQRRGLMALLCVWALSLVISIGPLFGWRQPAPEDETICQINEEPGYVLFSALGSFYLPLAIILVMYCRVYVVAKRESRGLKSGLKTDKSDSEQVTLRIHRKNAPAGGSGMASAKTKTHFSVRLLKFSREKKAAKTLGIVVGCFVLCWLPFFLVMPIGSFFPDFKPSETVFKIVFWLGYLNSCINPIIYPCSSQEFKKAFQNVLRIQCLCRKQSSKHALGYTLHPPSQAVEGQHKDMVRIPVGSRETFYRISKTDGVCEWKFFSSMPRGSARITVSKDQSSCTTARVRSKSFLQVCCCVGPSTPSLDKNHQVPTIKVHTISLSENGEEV"}, "[3]": {"target": "5-hydroxytryptamine receptor 2B (Homo sapiens, UniProt P41595)", "sequence (P41595 whole entry)": "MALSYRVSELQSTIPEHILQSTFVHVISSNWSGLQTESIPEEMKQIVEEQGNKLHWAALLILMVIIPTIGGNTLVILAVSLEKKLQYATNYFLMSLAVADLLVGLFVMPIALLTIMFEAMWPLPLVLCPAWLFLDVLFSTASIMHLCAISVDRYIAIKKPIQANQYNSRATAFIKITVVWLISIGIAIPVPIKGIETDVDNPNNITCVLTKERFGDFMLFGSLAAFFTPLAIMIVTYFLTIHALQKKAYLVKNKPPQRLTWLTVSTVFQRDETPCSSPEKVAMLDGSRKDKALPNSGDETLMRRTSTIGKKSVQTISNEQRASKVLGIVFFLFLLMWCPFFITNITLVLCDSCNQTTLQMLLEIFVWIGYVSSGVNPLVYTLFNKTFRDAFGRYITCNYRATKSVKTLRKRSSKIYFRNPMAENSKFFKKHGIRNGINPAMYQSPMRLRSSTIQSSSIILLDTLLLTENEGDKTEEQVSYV"}, "[4]": {"target": "T3, Corticotropin-releasing factor receptor 2 (Homo sapiens, UniProt Q13324)", "T3 sequence (Q13324 whole entry)": "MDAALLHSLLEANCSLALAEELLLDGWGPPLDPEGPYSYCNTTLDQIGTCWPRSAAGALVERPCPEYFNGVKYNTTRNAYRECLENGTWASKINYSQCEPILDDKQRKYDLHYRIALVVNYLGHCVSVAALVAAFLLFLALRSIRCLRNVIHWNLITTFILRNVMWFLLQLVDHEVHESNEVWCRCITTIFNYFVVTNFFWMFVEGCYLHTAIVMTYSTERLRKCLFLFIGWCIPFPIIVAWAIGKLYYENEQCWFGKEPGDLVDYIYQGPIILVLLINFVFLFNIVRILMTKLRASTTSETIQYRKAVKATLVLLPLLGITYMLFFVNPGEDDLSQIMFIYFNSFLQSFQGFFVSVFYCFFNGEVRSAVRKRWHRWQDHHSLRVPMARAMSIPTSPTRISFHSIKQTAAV"}, "[5]": {"target": "T1, Progesterone receptor"}, "[6]": {"target": "T4, Alpha-2A adrenergic receptor (Homo sapiens, UniProt P08913)", "T4 sequence (P08913 whole entry)": "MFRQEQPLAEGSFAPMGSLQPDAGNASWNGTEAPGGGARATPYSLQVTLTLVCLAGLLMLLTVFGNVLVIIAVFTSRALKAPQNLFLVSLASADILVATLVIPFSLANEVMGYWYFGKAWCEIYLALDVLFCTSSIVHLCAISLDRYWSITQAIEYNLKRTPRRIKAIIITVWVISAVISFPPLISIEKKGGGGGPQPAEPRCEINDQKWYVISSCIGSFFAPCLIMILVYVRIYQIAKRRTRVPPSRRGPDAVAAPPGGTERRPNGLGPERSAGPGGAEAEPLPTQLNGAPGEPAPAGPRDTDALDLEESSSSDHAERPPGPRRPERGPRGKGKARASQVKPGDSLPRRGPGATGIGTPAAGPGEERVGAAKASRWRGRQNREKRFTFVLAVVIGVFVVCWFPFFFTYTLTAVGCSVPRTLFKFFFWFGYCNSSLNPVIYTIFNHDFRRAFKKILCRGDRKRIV"}, "[7]": {"target": "D(1A) dopamine receptor (Homo sapiens, UniProt P21728)", "sequence (P21728 whole entry)": "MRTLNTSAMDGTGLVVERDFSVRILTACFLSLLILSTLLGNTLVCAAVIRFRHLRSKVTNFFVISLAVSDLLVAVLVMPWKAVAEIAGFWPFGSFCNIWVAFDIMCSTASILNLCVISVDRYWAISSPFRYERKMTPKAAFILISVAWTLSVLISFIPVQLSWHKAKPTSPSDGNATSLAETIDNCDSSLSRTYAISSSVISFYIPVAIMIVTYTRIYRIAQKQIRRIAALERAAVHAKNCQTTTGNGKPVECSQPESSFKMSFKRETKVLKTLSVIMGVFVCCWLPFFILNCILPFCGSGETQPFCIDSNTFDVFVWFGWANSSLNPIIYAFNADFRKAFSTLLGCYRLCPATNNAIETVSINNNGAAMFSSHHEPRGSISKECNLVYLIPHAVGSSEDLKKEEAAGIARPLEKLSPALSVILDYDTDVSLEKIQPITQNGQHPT"}}}
{"smiles": "CC[C@@H](C(N)=O)N1CCCC1=O", "values": [{"measurement": "AC50", "setting": "[1]", "result": "> 30", "unit": "µM"}]}
{"smiles": "CCC(CC)(CC(=O)Nc1cccc(/C=C/c2nc(C3CCC3)cs2)c1)C(=O)O", "values": [{"measurement": "AC50", "setting": "[1]", "result": "> 30", "unit": "µM"}]}
{"smiles": "Nc1ccncc1N", "note": "[AMIFAMPRIDINE]", "values": [{"measurement": "AC50", "setting": "[2]", "result": "> 30", "unit": "µM"}]}
{"smiles": "C=CCN1C[C@H](C(=O)N(CCCN(C)C)C(=O)NCC)C[C@@H]2c3cccc4[nH]cc(c34)C[C@H]21", "note": "[CABERGOLINE]", "values": [{"measurement": "AC50", "setting": "[3]", "result": 0.0086, "unit": "µM"}, {"measurement": "AC50", "setting": "[1]", "result": "> 10", "unit": "µM"}]}
{"smiles": "CN(C)CCC=C1c2ccccc2C=Cc2ccccc21", "note": "[CYCLOBENZAPRINE]", "values": [{"measurement": "AC50", "setting": "[4]", "result": "> 30", "unit": "µM"}, {"measurement": "AC50", "setting": "[5]", "result": "> 30", "unit": "µM"}]}
{"smiles": "CCOc1ccc(Cc2cc([C@@H]3O[C@H](CO)[C@@H](O)[C@H](O)[C@H]3O)ccc2Cl)cc1", "note": "[DAPAGLIFLOZIN]", "values": [{"measurement": "AC50", "setting": "[3]", "result": "> 10", "unit": "µM"}, {"measurement": "AC50", "setting": "[5]", "result": "> 30", "unit": "µM"}, {"measurement": "AC50", "setting": "[6]", "result": 8.66, "unit": "µM"}, {"measurement": "AC50", "setting": "[7]", "result": "> 10", "unit": "µM"}]}
{"smiles": "CN(C)CC/C=C1\\c2ccccc2CSc2ccccc21", "note": "[DOTHIEPIN]", "values": [{"measurement": "AC50", "setting": "[1]", "result": "> 30", "unit": "µM"}]}
{"smiles": "CC[C@H]1CN2CCc3cc(OC)c(OC)cc3[C@@H]2C[C@@H]1C[C@H]1NCCc2cc(OC)c(OC)cc21", "note": "[EMETINE]", "values": [{"measurement": "AC50", "setting": "[2]", "result": 2.51, "unit": "µM"}, {"measurement": "AC50", "setting": "[1]", "result": "> 30", "unit": "µM"}]}
{"smiles": "COc1ccc(C(=O)Nc2ccccc2CCC2CCCCN2C)cc1", "note": "(centres undefined) [ENCAINIDE]", "values": [{"measurement": "AC50", "setting": "[4]", "result": "> 30", "unit": "µM"}, {"measurement": "AC50", "setting": "[3]", "result": 3.66, "unit": "µM"}, {"measurement": "AC50", "setting": "[5]", "result": "> 30", "unit": "µM"}, {"measurement": "AC50", "setting": "[6]", "result": "> 10", "unit": "µM"}, {"measurement": "AC50", "setting": "[7]", "result": "> 10", "unit": "µM"}]}
{"smiles": "O=[N+]([O-])O[C@@H]1CO[C@H]2[C@@H]1OC[C@@H]2O", "note": "[ISOSORBIDE MONONITRATE]", "values": [{"measurement": "AC50", "setting": "[4]", "result": "> 30", "unit": "µM"}, {"measurement": "AC50", "setting": "[3]", "result": "> 10", "unit": "µM"}, {"measurement": "AC50", "setting": "[5]", "result": "> 30", "unit": "µM"}, {"measurement": "AC50", "setting": "[6]", "result": "> 10", "unit": "µM"}, {"measurement": "AC50", "setting": "[7]", "result": "> 10", "unit": "µM"}]}
{"smiles": "Cc1cc(C)c(NC(=O)CN(CC(=O)O)CC(=O)O)c(C)c1Br", "note": "[MEBROFENIN]", "values": [{"measurement": "AC50", "setting": "[2]", "result": "> 30", "unit": "µM"}]}
{"smiles": "COc1ccccc1N1CCN(CC(O)COc2cccc3ccccc23)CC1", "note": "(centres undefined) [NAFTOPIDIL]", "values": [{"measurement": "AC50", "setting": "[2]", "result": 0.02, "unit": "µM"}, {"measurement": "AC50", "setting": "[3]", "result": 0.047, "unit": "µM"}, {"measurement": "AC50", "setting": "[1]", "result": "> 30", "unit": "µM"}]}
{"smiles": "COc1cc2nc(N3CCN(C(=O)c4ccco4)CC3)nc(N)c2cc1OC", "note": "[PRAZOSIN]", "values": [{"measurement": "AC50", "setting": "[4]", "result": "> 30", "unit": "µM"}, {"measurement": "AC50", "setting": "[3]", "result": 2.57, "unit": "µM"}, {"measurement": "AC50", "setting": "[5]", "result": "> 30", "unit": "µM"}, {"measurement": "AC50", "setting": "[7]", "result": "> 10", "unit": "µM"}]}
{"smiles": "O=[N+]([O-])c1cn2c(n1)OC[C@@H](OCc1ccc(OC(F)(F)F)cc1)C2", "note": "[PRETOMANID]", "values": [{"measurement": "AC50", "setting": "[3]", "result": "> 10", "unit": "µM"}, {"measurement": "AC50", "setting": "[6]", "result": "> 10", "unit": "µM"}, {"measurement": "AC50", "setting": "[7]", "result": "> 10", "unit": "µM"}]}
{"smiles": "Cc1oc(=O)oc1CN1CCN(c2cc3c(cc2F)c(=O)c(C(=O)O)c2n3C(C)S2)CC1", "note": "(centres undefined) [PRULIFLOXACIN]", "values": [{"measurement": "AC50", "setting": "[2]", "result": "> 30", "unit": "µM"}]}
{"smiles": "CCCCCNC(=N)N/N=C/c1c[nH]c2ccc(OC)cc12", "note": "[TEGASEROD]", "values": [{"measurement": "AC50", "setting": "[4]", "result": "> 30", "unit": "µM"}, {"measurement": "AC50", "setting": "[3]", "result": 0.0206, "unit": "µM"}, {"measurement": "AC50", "setting": "[1]", "result": 21, "unit": "µM"}, {"measurement": "AC50", "setting": "[5]", "result": "> 30", "unit": "µM"}, {"measurement": "AC50", "setting": "[6]", "result": 0.31, "unit": "µM"}, {"measurement": "AC50", "setting": "[7]", "result": 0.942, "unit": "µM"}]}
{"smiles": "C=CCCCCCCCCC(=O)O", "note": "[UNDECYLENIC ACID]", "values": [{"measurement": "AC50", "setting": "[2]", "result": "> 30", "unit": "µM"}]}
{"smiles": "CCOc1ccccc1OCC1CNCCO1", "note": "(centres undefined) [VILOXAZINE]", "values": [{"measurement": "AC50", "setting": "[4]", "result": "> 30", "unit": "µM"}, {"measurement": "AC50", "setting": "[3]", "result": 2.34, "unit": "µM"}, {"measurement": "AC50", "setting": "[5]", "result": "> 30", "unit": "µM"}, {"measurement": "AC50", "setting": "[6]", "result": "> 10", "unit": "µM"}, {"measurement": "AC50", "setting": "[7]", "result": "> 10", "unit": "µM"}]}
{"smiles": "CN(C)CCc1c[nH]c2ccc(C[C@H]3COC(=O)N3)cc12", "note": "[ZOLMITRIPTAN]", "values": [{"measurement": "AC50", "setting": "[1]", "result": "> 30", "unit": "µM"}]}
